Where two headings read alike, the source gives them in different places.
What was measured:
[1] = system: B16F10 cells; assay: Cell morphology of melanoma cells (microscopy); type: cell-based, murine; settings: 14-42 μg/ml, 24 hr, as-synthesized
Procedure: For cell morphology, the melanoma cells were seeded in cell culture plates (SPL Korea) and incubated at 37 °C (5% CO2 atmosphere). The cells were then incubated with the various concentrations of 4b and 6a (0 (con), 14, 21, 28, 35, and 42 μg/ml) following 24 hr incubation. The cell morphology was accessed and images were captured using an inverted fluorescent microscope (Nikon, ECLIPSE, Ti).

[2] = system: TRP1 expression in B16F10 cells; assay: Western blot, TRP1 expression; type: cell-based, murine; settings: 24 hr; for expression of TRP1 versus control: ED (as-synthesized); for expression of TRP1 versus ED: PAED (plasma-treated)
Procedure: (§1) Melanoma cells were incubated with as-synthesized and plasma-treated 4b and 6a test compounds for 24 hr. Following incubation, treated and untreated cells were lysed in RIPA buffer (Cell Signaling Technology, USA), whole cell protein was extracted and subjected to electrophoresis in 12% SDS-PAGE, and blotted onto nitrocellulose membranes. The membrane was probed with the antibodies raised against MITF, tyrosinase and TRP1 (Abcam, USA). The bands were detected using Super Signal West Pico Chemiluminescent Substrate (Pierce, Rockford, IL, USA) and images were taken using a Vilver imaging system (Vilver, Upland, CA, USA).

[3] = system: tyrosinase expression in B16F10 cells; assay: Western blot, tyrosinase expression; type: cell-based, murine; settings: 24 hr
Procedure: as §1

[4] = biological target: T1, mushroom tyrosinase (Agaricus bisporus, UniProt C7FF04); assay: Circular dichroism analysis of the secondary structure of mushroom tyrosinase; settings: tyrosinase + as-synthesized compound (0 min plasma), 0.1 mM; for Turn % of tyrosinase: enzyme alone 7; for α-helix % of tyrosinase: enzyme alone 16; for β-sheet % of tyrosinase: enzyme alone 33; for Random coil % of tyrosinase: enzyme alone 44
Procedure: The structural changes in tyrosinase after incubation with ED and PAED were plotted in Fig. 5. […] We observed that the control tyrosinase enzyme has 16% α-helix, 33% β-sheets, 7% turn, and 44% random coil. After the interaction with 4a, the amount of α-helix changed to 15% and β-sheets changed to 35%. On the other hand, after the plasma treatment of 4a the amount of α-helix changed to 17% and β-sheets changed to 31%. While, after interacting with 4b, the amount of α-helix is 16.0%, β-sheets 29%, turn 10%, and random coil is 45.0%. However, plasma-activated 4b interacts differently with tyrosinase enzyme, showing 16% α-helix, 33% β-sheets, 6% turn, and 45% random coil. When 6a ED interacted with tyrosinase enzyme, we observed 20% α-helix, 25% β-sheets, 11.0% turn, and 44% random coil. However, 6a PAED interacts with tyrosinase enzyme, the α-helix changed to 19%, β-sheets 28%, turn 9%, and random coil 44%. […] To obtain further detail on the interaction of the ED with tyrosinase enzyme, we studied the molecular docking. For the CD spectroscopic studies[65][66][67] a J-815 spectrophotometer (Jasco, Japan) was used, equipped with a Peltier system that controlled the temperature. (1S)-(+)-10-camphorsulfonic acid (Aldrich, Milwaukee, WI) with a molar extinction coefficient of 34.5 M/cm at 285 nm and a 2.36 M/cm molar ellipticity (θ) at 295 nm was used for the CD calibrations. The samples were pre-equilibrated at the desired temperature for 15 min, and the scan speed was fixed for adaptative sampling (error F 0.01) with a response time of 1 sec and a 1 nm bandwidth. The secondary structure of the mushroom tyrosinase was monitored by using a 1.0 cm path length cuvette. The mushroom tyrosinase (0.2 mg/ml) was prepared in phosphate buffer (20 mM) at pH 6.8 for CD analysis. We used the 0.1 mM concentration of all derivatives in 1 ml buffer solution, with or without 10 min plasma treatment. All spectra were collected in triplicate from 200 to 250 nm and the background was corrected against the buffer (blank). The percentages of secondary structures of proteins were calculated using inbuilt Jasco software.
Target sequence in this assay (C7FF04 2-392): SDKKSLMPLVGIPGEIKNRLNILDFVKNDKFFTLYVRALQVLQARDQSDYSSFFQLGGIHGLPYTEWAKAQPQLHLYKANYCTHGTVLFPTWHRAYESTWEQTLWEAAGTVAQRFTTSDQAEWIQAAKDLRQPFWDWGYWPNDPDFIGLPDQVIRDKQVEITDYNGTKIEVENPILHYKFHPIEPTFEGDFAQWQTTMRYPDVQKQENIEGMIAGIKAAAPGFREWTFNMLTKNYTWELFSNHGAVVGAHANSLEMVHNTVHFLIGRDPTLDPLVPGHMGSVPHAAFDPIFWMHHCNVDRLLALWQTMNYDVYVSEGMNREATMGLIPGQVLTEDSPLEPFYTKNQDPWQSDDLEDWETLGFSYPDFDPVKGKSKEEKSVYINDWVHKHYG

[5] = biological target: T1, mushroom tyrosinase; assay: Mushroom tyrosinase inhibition assay (L-DOPA, dopachrome at 492 nm); type: biochemical; set-up: purchased Sigma Chemical Co. USA; settings: mean ± SD, read-out: Tyrosinase inhibitory activity IC50 (converted)
Procedure: To determine the action of ED and PAED, we checked the mushroom tyrosinase inhibitory activity in a cell-free environment. […] Moreover, after plasma treatment for different time intervals, we observed that inhibition activity of 4a, 4b, 4d and 6a was improved more as compared to without treatment. […] However, we observed the highest relative improvement in IC50 value of compound 4b among all ED compounds at 10 min plasma treatment. […] Therefore, we used the 4b and 6a compounds for further investigations, based on the decrease in IC50 value to a global minimum of the experiment after plasma treatment.
The mushroom tyrosinase was used for in vitro bioassays as described previously with some modifications. Briefly, 140 μl of phosphate buffer (20 mM, pH 6.8), 20 μl of mushroom tyrosinase (30 U/ml), and 20 μl of the inhibitor solution were placed in the wells of a 96-well plate. After pre-incubation for 10 min at room temperature, 20 μl of L-DOPA (3,4-dihydroxyphenylalanine) (0.85 mM) was added and the plate was further incubated at 25 °C for 20 min. Subsequently the absorbance of dopachrome was measured at 492 nm using a micro plate reader (OPTI Max, Tunable). Kojic acid was used as a reference inhibitor. The extent of inhibition by the test compounds was expressed as the […] necessary to achieve 50% inhibition (IC50). Each concentration was analyzed in three independent experiments run in triplicate. The IC50 values were determined by the data analysis and graphing software, Origin.
Target sequence in this assay (C7FF04 1-392): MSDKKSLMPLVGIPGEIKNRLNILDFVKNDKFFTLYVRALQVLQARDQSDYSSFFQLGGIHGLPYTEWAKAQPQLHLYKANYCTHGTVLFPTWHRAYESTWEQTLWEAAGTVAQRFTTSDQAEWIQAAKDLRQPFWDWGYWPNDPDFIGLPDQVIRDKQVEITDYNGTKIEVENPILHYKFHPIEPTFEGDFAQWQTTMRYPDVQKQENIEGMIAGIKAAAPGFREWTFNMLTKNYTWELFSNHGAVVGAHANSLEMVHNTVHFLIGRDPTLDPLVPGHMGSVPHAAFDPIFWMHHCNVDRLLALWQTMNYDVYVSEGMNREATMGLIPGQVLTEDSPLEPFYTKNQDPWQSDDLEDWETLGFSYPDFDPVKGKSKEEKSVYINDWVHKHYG

[6] = system: B16F10 cells; assay: Intracellular melanin content measurement; type: cell-based, murine; settings: for activity at 35 µg/mL: Mus musculus, B16-F10, 35 μg/ml, read-out: melanin content, % of control (100%); for melanin, % of control (normalized to 100%): as-synthesized ED, no α-MSH, concentration not given
Procedure: Melanoma (1.5 × 10^5) cells were seeded in cell culture plates and allowed to attach for 24 hr. Then each eugenol derivative was added and tested separately for melanin activation after 24 hr of incubation. After incubation, cells were detached using trypsin/EDTA and centrifuged at 1000 rpm for 5 min to collect the cell pellets. The cell pellets were solubilized in 1N NaOH at 60 °C for 1 hr. The melanin content was measured spectrophotometrically at 405 nm wavelength using a microplate reader (BioTek, synergy HT)[56]. […] Plasma-treated and non-plasma-treated ED (4b and 6a) were added to the cells, pre-incubated with or without α-MSH (100 nM) for a further 24 hr and melanin content was assayed as described above. Kojic acid can inhibit and α-MSH can stimulate the melanin in the cells, therefore we used them as negative and positive controls.

[7] = Con: as-synthesized, before plasma treatment, cell-free
[8] = compound after 3 min N2 APPJ plasma treatment
[9] = compound after 5 min N2 APPJ plasma treatment
[10] = compound after 10 min N2 APPJ plasma treatment

| Structure (SMILES) | effect on cell morphology [1] | expression of TRP1 versus control [2] | expression of TRP1 versus ED [2] | cellular tyrosinase expression versus control ([3]; ED (as-synthesized)) | cellular tyrosinase expression versus control ([3]; PAED (plasma-treated)) | melting point [°C] | Turn % of tyrosinase [4] [%] | α-helix % of tyrosinase [4] [%] | β-sheet % of tyrosinase [4] [%] | Random coil % of tyrosinase [4] [%] | IC50 [5, 7] [µM] | IC50 [5, 8] [µM] | IC50 [5, 9] [µM] | IC50 [5, 10] [µM] | melanin, % of control (normalized to 100%) [6] [%] | also measured |
| --- | --- | --- | --- | --- | --- | --- | --- | --- | --- | --- | --- | --- | --- | --- | --- | --- |
| C=CCc1ccc(OC(=O)COC(=O)c2ccc(O)cc2)c(OC)c1 [4b, 2-[2-methoxy-4-(prop-2-en-1-yl)phenoxy]-2-oxoethyl 4-hydroxybenzoate] | no effect on cell morphology | higher expression | more expression | no change | no change | 81 to 83 | 10 | 16.0 | 29 | 45.0 | 84.7 | 70.1 | 67.2 | 40.9 | 126 | α-helix % of tyrosinase ([4]; listed as 4b-0 min): 16%; Random coil % of tyrosinase ([4]; listed as 4b-0 min): 45%; activity at 35 µg/mL ([6]; after plasma treatment for 10 min, absence of α-MSH): 143%; activity at 35 µg/mL ([6]; as-synthesized, absence of α-MSH): 125%; activity at 35 µg/mL ([6]; as-synthesized, presence of α-MSH): 156% |
| C=CCc1ccc(OC(=O)COC(=O)/C=C/c2ccc(O)cc2)c(OC)c1 [6a, 2-[2-methoxy-4-(prop-2-en-1-yl)phenoxy]-2-oxoethyl(2E)-3-(4-hydroxyphenyl)prop-2-enoate] | no effect on cell morphology | higher expression | more expression | no change | no change | 114 to 116 | 11.0 | 20 | 25 | 44 | 13.6 | 13.6 | 13.6 | 8.14 | 125 | Turn % of tyrosinase ([4]; listed as 6a-0 min): 11% |

Reference: PMC4773869, “Influence of plasma-activated compounds on melanogenesis and tyrosinase activity” (Scientific Reports, 2016)
